Source: the NIST ThermoML archive (doi:10.1016/j.jct.2012.02.007)

Legend:
[1] = mn = molality of the nth substance listed, in mol/kg; conditions: 101.3 kPa, Liquid; for speed of sound: Sing-around technique in a fixed-path interferometer; for mass density: Vibrating tube method
[2] = osmotic coefficient (dimensionless); mn = molality of the nth substance listed, in mol/kg; conditions: 323.15 K, Liquid, Vapor Pressure Osmometer

CCCCn1cc[n+](C)c1.N#CN=C=[N-] [1-butyl-3-methylimidazolium dicyanamide] + CC(C)O
[1]
Conditions | mass density, 293.15 K [kg/m3] | mass density, 308.15 K [kg/m3] | mass density, 323.15 K [kg/m3] | speed of sound, 293.15 K [m/s] | speed of sound, 308.15 K [m/s] | speed of sound, 323.15 K [m/s]
m1 = 0.0497 | 788.07 | 775.35 | 761.85 | 1163.1 | 1110.6 | 1057.6
m1 = 0.1012 | 790.54 | 777.9 | 764.5 | 1167.4 | 1115.4 | 1062.8
m1 = 0.1541 | 793.01 | 780.44 | 767.13 | 1171.9 | 1120.2 | 1067.8
m1 = 0.2003 | 795.12 | 782.61 | 769.37 | 1175.6 | 1124.1 | 1072
m1 = 0.2521 | 797.4 | 784.94 | 771.79 | 1179.7 | 1128.4 | 1076.6
m1 = 0.5105 | 808.27 | 796.04 | 783.22 | 1199.3 | 1148.9 | 1098.1
m1 = 0.7616 | 817.89 | 805.84 | 793.27 | 1216.7 | 1167 | 1117.1
m1 = 1.016 | 826.92 | 815.02 | 802.67 | 1233.3 | 1184.4 | 1135.3
m1 = 1.264 | 835.03 | 823.26 | 811.1 | 1248.4 | 1200 | 1151.6
m1 = 1.523 | 843.01 | 831.36 | 819.36 | 1263.4 | 1215.6 | 1167.9
m1 = 1.784 | 850.52 | 838.97 | 827.12 | 1278 | 1230.6 | 1183.3
m1 = 2.022 | 856.61 | 845.16 | 833.43 | 1289.6 | 1242.8 | 1196.1
m1 = 2.519 | 868.38 | 857.09 | 845.59 | 1312.7 | 1266.6 | 1220.9
m1 = 3.014 | 878.91 | 867.77 | 856.45 | 1333.7 | 1288.3 | 1243.4
m1 = 3.553 | 889.91 | 878.92 | 867.79 | 1356 | 1311.2 | 1267

[2]
Conditions | osmotic coefficient
m1 = 0.0572 | 0.973
m1 = 0.0884 | 0.925
m1 = 0.1125 | 0.905
m1 = 0.2169 | 0.838
m1 = 0.3275 | 0.795
m1 = 0.4213 | 0.77
m1 = 0.5065 | 0.757
m1 = 0.8172 | 0.712
m1 = 1.153 | 0.682
m1 = 1.6 | 0.665
m1 = 2.049 | 0.641
m1 = 2.416 | 0.619
m1 = 2.863 | 0.592
m1 = 3.314 | 0.565

CCCCn1cc[n+](C)c1.N#CN=C=[N-] [1-butyl-3-methylimidazolium dicyanamide] + CCC(C)O
[1]
Conditions | mass density, 293.15 K [kg/m3] | mass density, 308.15 K [kg/m3] | mass density, 323.15 K [kg/m3] | speed of sound, 293.15 K [m/s] | speed of sound, 308.15 K [m/s] | speed of sound, 323.15 K [m/s]
m1 = 0.0516 | 809.04 | 796.59 | 783.23 | 1234.5 | 1180.7 | 1125.7
m1 = 0.1009 | 811.17 | 798.81 | 785.57 | 1238.1 | 1184.9 | 1130.4
m1 = 0.1501 | 813.3 | 801.01 | 787.88 | 1241.8 | 1188.8 | 1134.6
m1 = 0.2081 | 815.7 | 803.5 | 790.47 | 1246 | 1193.3 | 1139.5
m1 = 0.2579 | 817.76 | 805.61 | 792.68 | 1249.3 | 1197.1 | 1143.6
m1 = 0.5079 | 827.23 | 815.35 | 802.8 | 1265.7 | 1214.4 | 1162.3
m1 = 0.7631 | 836.25 | 824.57 | 812.32 | 1281.1 | 1230.8 | 1179.8
m1 = 1.016 | 844.37 | 832.86 | 820.86 | 1295.3 | 1245.9 | 1195.9
m1 = 1.267 | 851.96 | 840.59 | 828.79 | 1308.6 | 1260 | 1210.9
m1 = 1.517 | 858.95 | 847.71 | 836.09 | 1321.1 | 1273 | 1224.8
m1 = 1.782 | 865.94 | 854.81 | 843.35 | 1333.7 | 1286.2 | 1238.7
m1 = 1.95 | 870.16 | 859.09 | 847.71 | 1341.3 | 1294.2 | 1247
m1 = 2.523 | 883.17 | 872.28 | 861.18 | 1365.1 | 1319.1 | 1273.2
m1 = 3.56 | 902.51 | 891.67 | 880.92 | 1401.6 | 1356.4 | 1312.5

[2]
Conditions | osmotic coefficient
m1 = 0.0525 | 0.893
m1 = 0.0792 | 0.826
m1 = 0.0995 | 0.811
m1 = 0.2159 | 0.76
m1 = 0.3148 | 0.715
m1 = 0.4003 | 0.687
m1 = 0.5143 | 0.653
m1 = 0.8478 | 0.592
m1 = 1.241 | 0.556
m1 = 1.639 | 0.538
m1 = 2.038 | 0.524
m1 = 2.439 | 0.517
m1 = 2.842 | 0.502
m1 = 3.307 | 0.492
